Measured values taken from patent publication US20260102505A1, “ANTI-CD45-IGN ANTIBODY DRUG CONJUGATES AND USES THEREOF” (Vor Biopharma Inc., priority 2022, published 2026).

Assays:
[1] = test system: relapsed/refractory acute myeloid leukemia (AML) patient-derived xenograft; test: PDX model of relapsed/refractory AML, survival; type: in vivo, mice; conditions: R/R AML PDX; 30 mg/kg QDx5
Protocol: Anti-malignancy activity of an anti-CD45-ADC was assessed using a patient-derived xenograft (PDX) model of relapsed/refractory acute myeloid leukemia (AML). A single dose of anti-CD45-ADC (Ab5-DGN549) was administered to a group of mice when tumor levels reached ˜10% in peripheral blood, around day 24. Control groups received either PBS, isotype-ADC, CD45 mAb, or ARA-C at 30 mg/kg QDx5. Long-term, disease-free survival was monitored.
The anti-malignancy activity was assessed in a patient-derived xenograft (PDX) model of relapsed/refractory acute myeloid leukemia (AML).

[2] = test system: recurrent angioimmunoblastic T-cell lymphoma patient-derived xenograft; test: PDX model of recurrent angioimmunoblastic T-cell lymphoma, survival; type: in vivo, mice
Protocol: Anti-CD45-ADC was further tested in a PDX model of recurrent angioimmunoblastic T-cell lymphoma. A single dose of anti-CD45-ADC (Ab5-DGN549) was administered to a group of mice when tumor levels reached ˜10% in peripheral blood, around day 27. Control groups received either PBS, isotype-ADC, CD45 mAb, ARA-C at 30 mg/kg QDx5, or Dexamethasone at 5 mg/kg Q3Dx10. Long-term disease survival was monitored.

[3] = test system: erythroid-specific BCL11A enhancer-edited CD34+ cells; test: Conditioning and engraftment of BCL11A enhancer-edited CD34+ cells in rhesus macaques; type: in vivo; conditions: busulfan 5.5 mg/kg×4 days, 25-34 weeks
Protocol: Rhesus macaques were treated with a single dose of anti-CD45-ADC (Ab5-DGN549) at either 0.2 or 0.3 mg/kg followed by engraftment of erythroid-specific BCL11A enhancer-edited CD34+ cells.
For transplant studies, rhesus macaque CD34+ HSPCs were electroporated with 3×NLS SpCas9 protein and two RNAs targeting the +55 and +58 BCL11A erythroid enhancers.
A similar experiment was performed in Rhesus macaques. Rhesus macaques were treated with either 0.2 or 0.3 mg/kg of an anti-CD45-ADC as a single IV bolus. At day 10, the macaques underwent an HSC transplant with autologous gene-edited BCL11a enhancer −/− cells, and were monitored over time (FIG. 15A). A cohort of macaques were treated with Busulfan (5.5-6 mg/kg QDx4) as a control.
Two additional rhesus macaques were conditioned with 0.2 mg/kg anti-CD45 ADC and infused with autologous HSPCs transduced with a barcoded lentiviral vector.

Compound Nc1ccn([C@@H]2O[C@H](CO)[C@@H](O)[C@@H]2O)c(=O)n1 [ARA-C, reference compound] has a median survival [1] of 64 days and a median survival ([2]; 30 mg/kg QDx5) of 48 days.
CS(=O)(=O)OCCCCOS(C)(=O)=O [Busulfan, reference compound] was tested, and the T cell editing [3] was 8-31%.
For C[C@@H]1C[C@H]2[C@@H]3CCC4=CC(=O)C=C[C@]4(C)[C@@]3(F)[C@@H](O)C[C@]2(C)[C@@]1(O)C(=O)CO [Dexamethasone], the median survival ([2]; 5 mg/kg Q3Dx10) was 48 days.
